Our source for the IC50 values is patent US10450297B2, “Sulfonyl amide derivatives for the treatment of abnormal cell growth” (Pfizer, Inc., priority 2007, dated 2019).

pIC50: −log10 of the molar value.

The target in the test is FAK kinase (catalytic construct FAK(410-689)) (Homo sapiens (Human), UniProt Q05397). Kind of test: FAKcd kinase ELISA (inhibition of poly-glu-tyr phosphorylation by FAK(410-689)). It counts as biochemical. The settings on record: 50 μM final ATP. (An ELISA detects its analyte on a solid surface through an enzyme-linked reagent.)
Chain of FAK kinase (catalytic construct FAK(410-689)) (Q05397 410-689): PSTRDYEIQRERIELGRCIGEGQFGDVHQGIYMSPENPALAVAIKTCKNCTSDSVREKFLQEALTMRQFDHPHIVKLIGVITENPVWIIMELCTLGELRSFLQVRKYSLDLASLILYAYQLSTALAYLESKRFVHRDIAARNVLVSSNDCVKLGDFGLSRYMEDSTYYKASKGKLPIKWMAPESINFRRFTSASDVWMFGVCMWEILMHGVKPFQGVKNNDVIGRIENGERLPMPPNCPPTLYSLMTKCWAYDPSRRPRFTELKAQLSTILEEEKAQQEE
`CN(c1ncccc1CNc1nc(Nc2ccc(C(=O)N3CCNC(=O)C3)cc2)ncc1C(F)(F)F)S(C)(=O)=O` [Compound 254, N-methyl-N-[3-({[2-({4-[(3-oxopiperazin-1-yl)carbonyl]phenyl}amino)-5-(trifluoromethyl)pyrimidin-4-yl]amino}methyl)pyridin-2-yl]methanesulfonamide] gave a pIC50 of 8.88.
Under `CN(C)C(=O)c1ccc(Nc2ncc(C(F)(F)F)c(NCc3ccccc3NS(C)(=O)=O)n2)cc1` [Compound 225, N,N-dimethyl-4-{[4-({2-[(methylsuifonyl)amino]benzyl}amino)-5-(trifluoromethyl)pyrimidin-2-yl]amino}benzamide] stands 9.01.
`CN(c1ncccc1CNc1nc(NC2CCN(C(N)=O)CC2)ncc1C(F)(F)F)S(C)(=O)=O` [Compound 57, 4-({4-[({2-[methyl(methylsulfonyl)amino]pyridin-3-yl}methyl)amino]-5-(trifluoromethyl)pyrimidin-2-yl}amino)piperidine-1-carboxamide] had a pIC50 of 6.73.
To `CN(c1ncccc1CNc1nc(Nc2ccnc(N)n2)ncc1C(F)(F)F)S(C)(=O)=O` [Compound 299, N-{3-[({2-[(2-aminopyrimidin-4-yl)amino]-5-(trifluoromethyl)pyrimidin-4-yl}amino)methyl]pyridin-2-yl}-N-methylmethane-sulfonamide] belongs < 6.73; to `CN(c1ncccc1CNc1nc(Nc2cccc(CO)c2)ncc1C(F)(F)F)S(C)(=O)=O` [Compound 283, N-[3-({[2-{[3-(hydroxymethyl)phenyl]amino}-5-(trifluoromethyl)pyrimidin-4-yl]amino}methyl)pyridin-2-yl)-N-methylmethane-sulfonamide], 9.22; to `COc1ccc(Nc2ncc(C(F)(F)F)c(NCc3cccnc3N(C)S(C)(=O)=O)n2)cc1OC` [Compound 282, N-{3-[({2-[(3,4-dimethoxyphenyl)amino]-5-(trifluoromethyl)pyrimidin-4-yl}amino)methyl]pyridin-2-yl}-N-methylmethane-sulfonamide], 9.22.
Consider `CN(c1ncccc1CNc1nc(Nc2cccc(C(=O)N3CCOCC3)c2)ncc1C(F)(F)F)S(C)(=O)=O` [Compound 123, N-methyl-N-[3-({(2-{[3-(morpholin-4-ylcarbonyl)phenyl]amino}-5-(trifluoromethyl)pyrimidin-4-yl]amino}methyl)pyridin-2-yl]methanesulfonamide], for which the pIC50 was 8.67.
Under `CN(c1ncccc1CNc1nc(Nc2cccc(CS(N)(=O)=O)c2)ncc1C(F)(F)F)S(C)(=O)=O` [Compound 31, N-[3-({[2-({3-[(aminosulfonyl)methyl]phenyl}amino)-5-(trifluoronnethyl)pyrimidin-4-yl]amino}methyl)pyridin-2-yl]-N-methylmethane-sulfonatnide] stands 8.65.
Molecule `CN(c1ncccc1CNc1nc(Oc2ccc(C(N)=O)cc2)ncc1C(F)(F)F)S(C)(=O)=O` [Compound 350, 4-({4-[({2-[methyl(methylsulfonyl)amino]pyridin-3-yl}methyl)amino]-5-(trifluoromethyl)pyrimidin-2-yl}oxy)benzamide] showed a pIC50 of 7.20.
To `Cc1ncc(CNc2nc(Nc3cccc(C(N)=O)c3)ncc2C(F)(F)F)c(N(C)S(C)(=O)=O)n1` [Compound 296, 3-({4-[({2-methyl-4-[methyl(methylsulfonyl)amino]pyrimidin-5-yl}methyl)amino]-5-(trifluoromethyl)pyrimidin-2-yl}amino)benzamide] belongs 8.41; to `C[C@@H]1COCCN1C(=O)c1ccc(Nc2ncc(C(F)(F)F)c(NCc3cccnc3N(C)S(C)(=O)=O)n2)cc1` [Compound 278, N-methyl-N-{3-(({2-[(4-{[(3R)-3-methylmorpholin-4-yl]carbonyl}phenyl)amino]-5-(trlfluoromethyl)pyrimidin-4-yl}amino)methyl]pyridin-2-yl]methanesulfonamide], 8.18.
The molecule `CN(c1cccnc1CNc1nc(Nc2ccc(C(N)=O)cc2)ncc1C(F)(F)F)S(C)(=O)=O` [Compound 73, 4-({4-(({3-[methyl(methylsulfonyl)amino]pyridin-2-yl}methyl)amino]-5-(trifluoromethyl)pyrimidin-2-yl}amino)benzamide] had a pIC50 of 9.22.
`CNC(=O)c1ccc(Nc2ncc(C(F)(F)F)c(NCc3cccnc3N(C)S(C)(=O)=O)n2)c(C)c1` [Compound 403, N,3-dimethyl-4-({4-[({2-[methyl(methylsulfonyl)amino]pyridin-3-yl}methyl)amino)-5-(trifluoromethyl)pyrimidin-2-yl}amino)benzamide] had a pIC50 of 8.96.
As for `CN(c1ncccc1CNc1nc(Nc2ccc(C(=O)NCC(C)(C)CO)cc2)ncc1C(F)(F)F)S(C)(=O)=O` [Compound 256, N-(3-hydroxy-2,2-dimethylpropyl)-4-({4-[({2-[methyl(methylsulfonyl)amino]pyridin-3-yl}methyl)amino]-5-(trifluoromethyl)pyrimidin-2-yl}amino)benzamide], the pIC50 was 8.80.
As to `Cc1ccc(CNc2nc(Nc3ccccc3)ncc2C(F)(F)F)c(N(C)S(C)(=O)=O)n1` [Compound 51, N-[3-({[2-anilino-5-(trifluoromethyl)pyrimidin-4-yl]amino}methyl)-6-methylpyridin-2-yl]-N-methylmethanesulfonamide], the pIC50 was 9.23.
To `CCNC(=O)c1ccc(Nc2ncc(C(F)(F)F)c(NCc3ncccc3N(C)S(C)(=O)=O)n2)cc1` [Compound 97, N-ethyl-4-({4-[({3-[methyl(methylsulfonyl)amino]pyridin-2-yl}methyl)amino]-5-(trifluoromethyl)pyrimidin-2-yl}amino)benzamide] belongs 9.23.
The molecule `COc1ccc(C(N)=O)cc1Nc1ncc(C(F)(F)F)c(NCc2nccnc2N(C)S(C)(=O)=O)n1` [Compound 307, 4-methoxy-3-({4-[({3-[methyl(methylsulfonyl)amino)pyrazin-2-yl}methyl)amino]-5-(trifluoromethyl)pyrimidin-2-yl}amino)benzamide] had a pIC50 of 8.95.
Under `CN(c1ncccc1CNc1nc(Nc2ccc(C(=O)NCc3ccccc3)cc2)ncc1C(F)(F)F)S(C)(=O)=O` [Compound 271, N-benzyl-4-({4-[({2-[methyl(methylsulfonyl)amino]pyridin-3-yl}methyl)amino]-5-(trifluoromethyl)pyrimidin-2-yl}amino)benzamide] stands 8.94.
In turn, `CN(c1ncccc1CNc1nc(Nc2cccc(C(=O)OC(C)(C)C)c2)ncc1C(F)(F)F)S(C)(=O)=O` [Example 9, tert-butyl 3-({4-[({2-[methyl(methylsulfonyl)amino]pyridin-3-yl}methyl)amino]-5-(trifluoromethyl)pyrimidin-2-yl}amino)benzoate] showed a pIC50 of 9.22.
Take `COc1ccc(C(N)=O)cc1Nc1ncc(C(F)(F)F)c(NCc2cccnc2N(C)S(C)(=O)=O)n1` [Compound 304, 4-methoxy-3-({4-[({2-[methyl(methylsulfonyl)amino]pyridin-3-yl}methyl)amino]-5-(trifluoromethyl)pyrimidin-2-yl}amino)benzamide]: the pIC50 is 9.11.
To `CN(c1ncccc1CNc1nc(Nc2cccc(C(=O)N3CC(O)C3)c2)ncc1C(F)(F)F)S(C)(=O)=O` [Compound 90, N-[3-({[2-({3-{(3-hydroxyazetidin-1-yl)carbonyl]phenyl}amino)-5-(trifluoromethyl)pyrimidin-4-yl]amino}methyl)pyridin-2-yl]-N-methylmethane-sulfonamide] belongs 9.14.

What is called pIC50 is −log10 of the IC50, conventionally taken in molar units. Low values mean a high IC50, high ones a low IC50.
